This is an account of results in US8790695B2, “Medicinal carriers, and preparation method and uses thereof” (China Medical University, priority 2012, dated 2014).

Assay [1] has as its system Helicobacter pylori. To be noted: stomach tissue of infected mice, 37° C. for 12 hours.
From the text: Small black mice were fed with a broth containing 1.0×10^9 CFU/ml Helicobacter pylori continually for 6 times in 2 weeks, to establish a Helicobacter pylori-infected animal model. The mice were fasted one night before fed with Helicobacter pylori, to decrease the mucus in the stomach, and thereby, increase the probability of infection. Then, the Helicobacter pylori-infected mice (6 mice each group) were fed with (a) the nano medicinal carrier obtained from example 1 (2) (control group); (b) 30 mg/kg amoxicillin; and (c) nano medicinal carrier (the concentration of amoxicillin, 30 mg/kg) obtained from example 1 (4) once daily for 10 days.
Campylobacter-like organism assay (CLO assay) was conducted to evaluate the effect of nano medicinal carrier on treating the Helicobacter pylori-infected mice. The internal side of the stomach tissue of the Helicobacter pylori-infected mice was touch with CLO gel and compressed, the tissue was incubated at 37° C. for 12 hours, and the variation of the color of the CLO gel was observed. The CLO gel without Helicobacter pylori (contacted with deionized water) is a yellow color. The CLO gel with a little of Helicobacter pylori is a yellow-orange color. The CLO gel with a lot of Helicobacter pylori is a red color. A darker color represents a higher amount of Helicobacter pylori.
Assay [2] relates to Helicobacter pylori. To be noted: infected mice, fed 30 mg/kg amoxicillin once daily for 10 days.
From the text: Small black mice were fed with a broth containing 1.0×10^9 CFU/ml Helicobacter pylori continually for 6 times in 2 weeks, to establish a Helicobacter pylori-infected animal model. The mice were fasted one night before fed with Helicobacter pylori, to decrease the mucus in the stomach, and thereby, increase the probability of infection. Then, the Helicobacter pylori-infected mice (6 mice each group) were fed with (a) the nano medicinal carrier obtained from example 1 (2) (control group); (b) 30 mg/kg amoxicillin; and (c) nano medicinal carrier (the concentration of amoxicillin, 30 mg/kg) obtained from example 1 (4) once daily for 10 days. Then, the mice were sacrificed, and the tissue in the stomach was taken off to conduct the colony number experiment.

In the case of `CC1(C)S[C@@H]2[C@H](NC(=O)[C@H](N)c3ccc(O)cc3)C(=O)N2[C@H]1C(=O)O` [amoxicillin solution, amoxicillin], the “color of the CLO gel (darker color = higher amount of Helicobacter pylori)” value in assay [1] is given as “red color”. Further, the “The colony number of Helicobacter pylori in the stomach tissue of the mice” value in assay [2] is listed as 316.9 ± 30.5.
